{"source": "patent US12285428B2", "about": "(IMBRIA PHARMACEUTICALS, INC., priority 2021, dated 2025)", "key": {"[1]": {"details": "human, in vivo, po"}, "[2]": {"details": "human, in vivo", "protocol": "Subjects received multiple oral doses of an IR formulation of IMB-1018972 or placebo once every 12 hours (q12h) for 14 consecutive days.\nThe doses were selected based upon the safety, tolerability, and PK data from the SAD part: • Group B1 multiple oral doses of an IR formulation of 150 mg IMB-1018972 (n=9) or matching placebo (n=3) twice daily (q12h) for 14 days; on Day 14 only a single morning dose was administered • Group B2: multiple oral doses of an IR formulation of 50 mg IMB-1018972 (n=9) or matching placebo (n=3) q12h for 14 days; on Day 14 only a single morning dose was administered\nBefore each morning dose, subjects fasted overnight for at least 10 hours following a snack on the evening before. On Days 1 and 14, subjects received a standardized breakfast that had to be consumed within 20 minutes. Dosing occurred at 30 minutes after the start of breakfast. Following dosing, subjects fasted for 4 hours until lunch. During fasting, fluids other than water were not allowed. On Days 2 to 13, breakfast was not standardized and was given within maximally 1 hour before dosing and consumed before dosing. No fasting after dosing was applicable on these days.\nOn all dosing days, an evening snack was given within maximally 1 hour before dosing and consumed before dosing."}, "[3]": {"experiment": "FIH study, FE arm of SAD part: effect of food on plasma PK (150 mg IMB-1018972)", "details": "human, in vivo", "protocol": "Subjects assigned to Group A4 also participated in the FE arm and received the same single dose of IMB-1018972 or placebo under fed conditions (Food and Drug Administration [FDA]-defined high-fat breakfast after an overnight fast of at least 10 hours) in a second period at least 1 week after drug administration under fasted conditions in the SAD part.\nThen, subjects received an FDA-defined high-fat breakfast that had to be consumed within 20 minutes. The entire breakfast had to be consumed by the subjects. […] Following dosing, subjects fasted for 4 hours until lunch. During fasting, fluids other than water were not allowed.\nFor the second period of Group A4 in the FE arm, and for Day 13 of the single-dose MR part, the FDA-defined high-fat breakfast of 918 kcal consisted of: • 2 fried eggs (in 15 g butter/margarine) (approximately 100 g) • 1 portion of bacon (40 g) (or brie 60+ for vegetarians) • 1 portion of fried potatoes (115 g) • 2 slices of (toasted) (wheat) bread (approximately 70 g) with 15 g margarine • 1 glass of whole milk (240 mL) The total of 918 kcal (vegetarian version 915 kcal) could be broken down as follows: • 39 g protein=156 kcal • 59 g fat=527 kcal • 59 g carbohydrates=235 kcal Blinding"}, "[4]": {"details": "human, in vivo, 200 mg", "protocol": "On Day 13, subjects received a FDA-defined high-fat breakfast that had to be consumed within 20 minutes. […] Following dosing, subjects fasted for 4 hours until lunch. During fasting, fluids other than water were not allowed. Subjects were not allowed to lie down for 4 hours after dosing, except when required for assessments that needed to be performed."}, "clinical [5]": {"experiment": "clinical", "details": "human, in vivo, po", "procedure": "(§1) Urine collection for PK was only conducted in the SAD part, but not in the second period of the FE group A4. […] The subjects were instructed to empty their bladders completely before study drug administration and at the end of each collection interval. A blank urine sample was collected within 12 hours prior to study drug administration. The exact times of urine collection and the urine weight of the entire interval (before and after addition of any urine stabilizers, if used) were recorded in the eCRF."}, "clinical [6]": {"experiment": "clinical", "details": "in vivo, po", "protocol": "Before dosing (on Days 1, 4, 7, and 10 in the single-dose MR part), subjects fasted overnight for at least 10 hours following a light supper on the evening before. Following dosing, subjects fasted for 4 hours until lunch. During fasting, fluids other than water were not allowed; however, water was not allowed from 2 hours predose until 1 hour postdose (apart from the water taken with the dose).\nThe AUCs were calculated using the linear up/log down trapezoidal rule, expressed in units of concentration×time.\nSubjects with R2 below 0.80 or % AUCextra>20% were not excluded from the dose-proportionality evaluation based on AUC0-inf. A point estimate and 95% CI were produced for the slope. […] Since there were only 2 dose levels in the MAD part, no dose-proportionality analysis was performed for the MAD part."}, "[7]": {"details": "human, in vivo", "remark": "listed apart in the source", "procedure": "as §1"}, "[8]": {"experiment": "FIH study, SAD part: PK in urine", "procedure": "as §1"}}, "note": "Like-named read-outs stand apart in the source and are kept apart here."}
{"compound": "COc1ccc(CN2CCN(CCO)CC2)c(OC)c1OC", "note": "[IMB-1028814, 2-[4-[(2,3,4-trimethoxyphenyl)methyl]piperazin-1-yl]ethanol]", "values": [{"measurement": "AUC0-t higher after the 8-hour MR formulation than after the 4-hour MR formulation", "setting": "[1]", "value": 6, "unit": "%"}, {"measurement": "AUC0-t lower after the 8-hour MR formulation than after the 4-hour MR formulation", "setting": "[1]", "value": 26, "unit": "%"}, {"measurement": "Geometric mean Cmax higher on Day 1 after 150 mg fed in the MAD part than after single 150 mg fed in the SAD part", "setting": "[2]", "value": 97, "unit": "%"}, {"measurement": "Cmax lower after high-fat breakfast relative to fasted conditions", "setting": "[3]", "value": "approximately 36%"}, {"measurement": "Effect of food on AUC0-inf: estimate (fed relative to fasted)", "setting": "[3]", "value": 1.12}, {"measurement": "Effect of food on AUC0-t: estimate (fed relative to fasted)", "setting": "[3]", "value": 1.12}, {"measurement": "Effect of food on Cmax: estimate (fed relative to fasted)", "setting": "[3]", "value": 0.64}, {"measurement": "Tmax", "setting": "[3]; Median tmax", "value": 1, "unit": "h"}, {"measurement": "Cmax higher after high-fat breakfast relative to fasted conditions", "setting": "[4]", "value": "approximately 42%"}, {"measurement": "Effect of food on AUC0-inf: estimate (fed relative to fasted)", "setting": "[4]", "value": 1.16}, {"measurement": "Effect of food on AUC0-t: estimate (fed relative to fasted)", "setting": "[4]", "value": 1.16}, {"measurement": "Effect of food on Cmax: estimate (fed relative to fasted)", "setting": "[4]", "value": 1.42}, {"measurement": "CL renal", "setting": "clinical [5]", "value": "62.7 to 89.5", "unit": "mL/min"}, {"measurement": "Time at which detectable plasma concentrations were generally seen", "setting": "clinical [6]; human", "value": "15 to 30", "unit": "min"}, {"measurement": "Tmax", "setting": "clinical [6]; human", "value": "~1", "unit": "h"}, {"measurement": "half-life", "setting": "clinical [6]; human", "value": "2.6 to 3", "unit": "h"}, {"measurement": "Tmax", "setting": "clinical [6]; human, 50 mg", "value": "0.5 to 1.02", "unit": "h"}, {"measurement": "Fashion of elimination", "setting": "clinical [6]", "value": "biphasic"}, {"measurement": "Primary clearance mechanism", "setting": "[7]", "value": "metabolism"}]}
{"compound": "COc1ccc(CN2CCNCC2)c(OC)c1OC", "note": "[trimetazidine, reference compound]", "values": [{"measurement": "AUC0-t higher after the 8-hour MR formulation than after the 4-hour MR formulation", "setting": "[1]", "value": 4, "unit": "%"}, {"measurement": "AUC0-t lower after the 8-hour MR formulation than after the 4-hour MR formulation", "setting": "[1]", "value": 12, "unit": "%"}, {"measurement": "Geometric mean Cmax lower on Day 1 after 150 mg fed in the MAD part than after single 150 mg fed in the SAD part", "setting": "[2]", "value": 32, "unit": "%"}, {"measurement": "Time at which detectable plasma concentrations were generally seen", "setting": "clinical [6]; human", "value": "15 to 30", "unit": "min"}, {"measurement": "Primary clearance mechanism", "setting": "[8]; concluded from urinary excretion", "value": "renal excretion"}, {"measurement": "Renal handling (CLR greater than glomerular filtration rate, 7.5 L/h)", "setting": "[8]; in vivo", "value": "net tubular secretion"}, {"measurement": "Arithmetic mean percent of the dose excreted in urine as trimetazidine", "setting": "[8]; within 48 hours after single oral 35 mg trimetazidine", "value": 54.47, "unit": "%"}]}
